Results published in US20240059710A1, “KRAS G12D Inhibitors” (Jacobio Pharmaceuticals Co., Ltd., priority 2020, published 2024).
pIC50: −log10 of the molar value. Where two headings read alike, the source gives them in different places.

Columns and labels:
[1] = target: T1, GppNp-loaded HIS-KRAS (G12D, aa 1-169) / cRAF RBD (Homo sapiens, UniProt P01116, G12D); assay: GTP-KRAS and cRAF interaction assay; format: binding; settings: HTRF, 2 hours at 25° C.
T1 construct: GppNp-loaded HIS-KRAS (G12D, aa 1-169)
Outline: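 GppNp-loaded KRAS G12D (2.0 nM) preincubated 15 min with compound, then cRAF RBD (35 nM) and HTRF antibodies added for 2 h at 25° C with 100 μM GTP final. Ratios normalized to DMSO and no-KRAS controls; IC50 by 4-parameter fit.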

[2] = target: T2, GDP-loaded HIS-KRAS (G12D, aa 1-169) (Homo sapiens, UniProt P01116, G12D); assay: SOS1 catalyzed nucleotide exchange assay; format: biochemical; settings: SOS1 ExD, TR-FRET, 4 hours at 25° C.
T2 construct: GDP-loaded HIS-KRAS (G12D, aa 1-169)
Outline: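 Compound was preincubated 15 min with 1.5 nM GDP-loaded KRAS G12D (final 5 nM GDP). SOS1 ExD (aa 564-1049, 0.5 µM), 80 nM BODIPY FL GTP and anti-His Tb antibody were then added for 4 h at 25 °C. The TR-FRET 515/486 ratio was normalized between DMSO and no-KRAS wells, and IC50 came from 4-parameter fits.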

AsPC-1 = assay: Cell growth inhibition assay (AsPC-1); format: cell-based; settings: AsPC-1, 6 days incubation, CellTiter-Glo
Outline: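 AsPC-1 cells seeded at 1000 cells/well in RPMI-1640 with 10% FBS, attached overnight, then exposed to compound dilutions for 6 days at 37 °C/5% CO2. Viability read by CellTiter-Glo luminescence; IC50 from a 4-parameter logistic fit.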

AGS = assay: Cell growth inhibition assay (AGS); format: cell-based; settings: 6 days incubation, CellTiter-Glo
Procedure: 4. Cell Growth Inhibition Assay
AGS cultured in F12K medium (Gibco) containing 10% fetal bovine serum (Gibco). Cells in culture medium were plated in 96-well plates at a concentration of 500 cells/well ([…]) and allowed to attach overnight.
The next day, compounds were diluted in culture medium and added to the plates. After 6 days incubation in a 37° C./5% CO2 cell incubator, the cell viability was detected by CellTiter-Glo® Luminescent Cell Viability Assay kit (Promega). Luminescent signals were read on Tecan Spark multimode microplate reader and analyzed using a 4-parameter logistic model to calculate IC50 values.

[3] = tested on: AGS cells expressing KRAS G12D; assay: Phospho-ERK1/2(THR202/TYR204) HTRF assay; format: cell-based; settings: 2 hours incubation, read-out: AGS p-ERK IC50
Outline: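 Cells seeded 40,000/well, incubated overnight, then treated with compound in F12K with 0.1% FBS for 2 h at 37 °C. Lysates assayed for phospho-ERK1/2 by HTRF after 4 h at 25 °C; IC50 from 4-parameter logistic fit.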

T2 sequence (P01116 1-169 isoform P01116-2 G12D): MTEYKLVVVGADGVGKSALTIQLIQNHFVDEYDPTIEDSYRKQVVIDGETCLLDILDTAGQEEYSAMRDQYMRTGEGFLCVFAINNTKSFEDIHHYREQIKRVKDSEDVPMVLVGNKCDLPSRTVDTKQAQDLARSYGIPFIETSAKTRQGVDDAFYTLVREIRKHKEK
T1 sequence (P01116 1-169 isoform P01116-2 G12D): as above

Structure (SMILES) | pIC50 [1] | pIC50 [2] | pIC50 (AsPC-1; Homo sapiens, ASPC1, 144 h) | pIC50 (AGS; Homo sapiens, 144 h) | pIC50 ([3]; Homo sapiens) | pIC50 (AsPC-1) | pIC50 (AGS) | pIC50 [3]
C#Cc1cccc2cc(O)cc(-c3cc4nc(OCC5(CN6CCOCC6)CC5)nc(N5CC6CCC(C5)N6)c4cc3Cl)c12 [Compound 57] | 6.46 | 7.34 | 6.40 | 6.91 | 7.02 |  |  | 
C#Cc1c(F)ccc2cc(O)cc(-c3c(C4CC4)cc4c(N5CC6CCC(C5)N6)nc(OC[C@@]56CCCN5C[C@H](F)C6)nc4c3F)c12 [Compound 71] | 7.14 | 7.22 | 6.14 | 6.69 | 8.03 |  |  | 
CCc1cccc2cc(O)cc(-c3ccc4c(N5CC6CCC(C5)N6)nc(OCC5(CN6CCOCC6)CC5)nc4c3F)c12 [Compound 47] | 6.58 | 8.14 | 7.12 | 7.17 | 7.53 |  |  | 
C#Cc1cccc2cc(O)cc(-c3ccc4c(N5CC6CCC(C5)N6)nc(OCC5(CN6CCOCC6)CC5)nc4c3C)c12 [Compound 132] | 6.10 | 7.59 | 6.95 | 7.48 | 7.02 |  |  | 
C#Cc1cccc2cc(O)cc(-c3ccc4c(N5CC6CCC(C5)N6)nc(OC[C@@]56CCCN5C[C@H](F)C6)nc4c3)c12 [Compound 96] | 6.84 | 7.53 | 6.40 | 6.69 | 7.47 |  |  | 
C#Cc1cccc2cc(O)cc(-c3cc4nc(OC[C@@]56CCCN5C[C@H](F)C6)nc(N5CC6CCC(C5)N6)c4cc3F)c12 [Compound 79] | 6.89 | 8.32 | 6.96 | 8.11 | 8.18 |  |  | 
C#Cc1cccc2cc(O)cc(-c3c(F)cc4c(N5CC6CCC(C5)N6)nc(OCC5(CN6CCOCC6)CC5)nc4c3F)c12 [Compound 41] | 6.68 | 8.04 | 7.73 | 8.16 | 8.58 |  |  | 
C#Cc1cccc2cc(O)cc(-c3c(F)cc4c(N5CC6CCC(C5)N6)nc(OCC5(CN6CCOCC6)CC5)nc4c3Cl)c12 [Compound 43] | 6.38 | 7.74 | 7.36 | 7.74 | 7.75 |  |  | 
C#Cc1cccc2cc(O)cc(-c3c(C(F)(F)F)cc4c(N5CC6CCC(C5)N6)nc(OCC5(CN6CCOCC6)CC5)nc4c3F)c12 [Compound 98] | 7.70 | 8.89 | 7.16 | 7.74 | 7.86 |  |  | 
C#Cc1cccc2cc(O)cc(-c3cc4nc(OCC5(CN6CCOCC6)CC5)nc(N5CC6CCC(C5)N6)c4cc3C(F)(F)F)c12 [Compound 119] | 6.70 | 7.37 | 6.44 | 7.09 | 6.95 |  |  | 
C#Cc1c(F)ccc2cc(O)cc(-c3ccc4c(N5CC6CCC(C5)N6)nc(OCC5(CN6CCOCC6)CC5)nc4c3F)c12 [Compound 48] | 7.75 | 8.15 | 7.70 | 8.94 | 9.10 |  |  | 
Cc1ccc2cc(O)cc(-c3ccc4c(N5CC6CCC(C5)N6)nc(OCC5(CN6CCOCC6)CC5)nc4c3F)c2c1 [Compound 64] | 6.48 | 7.34 |  |  |  | 6.75 | 7.14 | 7.21
C#Cc1c(Cl)ccc2cc(O)cc(-c3c(F)cc4c(N5CC6CCC(C5)N6)nc(OCC5(CN6CCOCC6)CC5)nc4c3F)c12 [Compound 126] | 7.61 | 8.68 | 7.84 | 9.31 | 7.68 |  |  | 
C#Cc1cccc2cc(O)cc(-c3cc4nc(OCC5(CN6CCOCC6)CC5)nc(N5CC6CCC(C5)N6)c4cc3CC)c12 [Compound 109] | 6.85 | 7.31 | 7.06 | 7.55 | 7.28 |  |  | 
C#Cc1cccc2cc(O)cc(-c3c(Cl)cc4c(N5CC6CCC(C5)N6)nc(OCC5(CN6CCOCC6)CC5)nc4c3F)c12 [Compound 35] | 6.95 | 7.98 | 7.00 | 8.07 | 7.49 |  |  | 
C#Cc1cccc2cc(O)cc(-c3c(C#N)cc4c(N5CC6CCC(C5)N6)nc(OCC5(CN6CCOCC6)CC5)nc4c3F)c12 (single isomer, unassigned) [Compound 60B] | 7.20 | 7.90 |  |  |  | 6.68 | 7.88 | 8.16
C#Cc1cccc2cc(O)cc(-c3ccc4c(N5CC6CCC(C5)N6)nc(OCC5(CN(C)CCO)CC5)nc4c3F)c12 [Compound 86] | 7.01 | 7.68 | 6.28 | 7.22 | 8.13 |  |  | 
C#Cc1cccc2cc(O)cc(-c3cc4nc(OCC5(CN6CCOCC6)CC5)nc(N5CC6CCC(C5)N6)c4cc3OC)c12 [Compound 120] | 6.51 | 7.43 | 6.74 | 7.55 | 7.70 |  |  | 
C#Cc1c(F)ccc2cc(O)cc(-c3ccc4c(N5CC6CCC(C5)N6)nc(OCC5(CN6CCC(O)CC6)CC5)nc4c3F)c12 [Compound 76] | 7.19 | 8.36 | 6.17 | 7.14 | 8.08 |  |  | 
C#Cc1cccc2cc(O)cc(-c3c(Cl)cc4c(N5CC6CCC(C5)N6)nc(OCC5(CN6CCOCC6)CC5)nc4c3Cl)c12 [Compound 107] | 6.28 | 8.39 | 6.55 | 6.97 | 6.85 |  |  | 
C#Cc1cccc2cc(O)cc(-c3ccc4c(N5CC6CCC(C5)N6)nc(OCC5(CN6CCCCC6)CC5)nc4c3F)c12 [Compound 131] | 7.04 | 8.04 | 7.26 | 7.87 | 8.01 |  |  | 
C#Cc1c(OC)ccc2cc(O)cc(-c3ccc4c(N5CC6CCC(C5)N6)nc(OCC5(CN6CCOCC6)CC5)nc4c3F)c12 [Compound 94] | 5.60 | 8.27 | 5.94 | 6.48 | 7.55 |  |  | 
CCc1cccc2cc(O)cc(-c3ccc4c(N5CC6CCC(C5)N6)nc(OC[C@@]56CCCN5C[C@H](F)C6)nc4c3F)c12 [Compound 91] | 6.99 | 8.32 | 7.50 | 7.91 | 8.07 |  |  | 
C#Cc1cccc2cc(O)cc(-c3c(CC)cc4c(N5CC6CCC(C5)N6)nc(OCC5(CN6CCOCC6)CC5)nc4c3F)c12 [Compound 49] | 7.58 | 8.45 | 7.06 | 7.97 | 7.77 |  |  | 
